In publication PMC4032265 (PLoS ONE, 2014):
Where two headings read alike, the source gives them in different places.

Key:
[1] = molecular target: 5HT1B serotonergic receptor (Homo sapiens, UniProt P28222); assay: PDSP radioligand binding, 5HT1B; conditions: read-out: % inhibition at 10 µM; single concentration 10 µM
[2] = molecular target: 5HT6 serotonergic receptor (Homo sapiens, UniProt P50406); assay: PDSP radioligand binding, 5HT6; conditions: read-out: % inhibition at 10 µM; single concentration 10 µM
Chain of 5HT6 serotonergic receptor (P50406 whole entry): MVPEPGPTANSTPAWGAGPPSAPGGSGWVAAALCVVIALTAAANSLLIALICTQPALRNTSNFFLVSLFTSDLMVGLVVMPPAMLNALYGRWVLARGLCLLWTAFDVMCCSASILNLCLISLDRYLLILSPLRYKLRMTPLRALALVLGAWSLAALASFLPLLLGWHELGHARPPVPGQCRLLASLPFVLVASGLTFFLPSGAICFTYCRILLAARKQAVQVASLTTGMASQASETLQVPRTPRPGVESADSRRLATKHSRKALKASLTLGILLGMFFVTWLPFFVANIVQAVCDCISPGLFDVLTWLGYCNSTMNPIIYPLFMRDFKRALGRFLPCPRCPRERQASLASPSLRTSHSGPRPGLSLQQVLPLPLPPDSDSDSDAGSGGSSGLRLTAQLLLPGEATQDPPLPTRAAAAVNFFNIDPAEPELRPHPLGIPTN

[3] = molecular target: peripheral benzodiazepine receptor (PBR) (Rattus norvegicus, UniProt P16257); assay: PDSP radioligand binding, PBR; conditions: for inhibition at 10 µM: read-out: % inhibition at 10 µM, single concentration 10 µM
D2 dopaminergic receptor = D2 dopaminergic receptor (Homo sapiens, UniProt P14416); assay: PDSP radioligand binding, D2; conditions: read-out: % inhibition at 10 µM; single concentration 10 µM
Chain of D2 dopaminergic receptor (P14416 whole entry): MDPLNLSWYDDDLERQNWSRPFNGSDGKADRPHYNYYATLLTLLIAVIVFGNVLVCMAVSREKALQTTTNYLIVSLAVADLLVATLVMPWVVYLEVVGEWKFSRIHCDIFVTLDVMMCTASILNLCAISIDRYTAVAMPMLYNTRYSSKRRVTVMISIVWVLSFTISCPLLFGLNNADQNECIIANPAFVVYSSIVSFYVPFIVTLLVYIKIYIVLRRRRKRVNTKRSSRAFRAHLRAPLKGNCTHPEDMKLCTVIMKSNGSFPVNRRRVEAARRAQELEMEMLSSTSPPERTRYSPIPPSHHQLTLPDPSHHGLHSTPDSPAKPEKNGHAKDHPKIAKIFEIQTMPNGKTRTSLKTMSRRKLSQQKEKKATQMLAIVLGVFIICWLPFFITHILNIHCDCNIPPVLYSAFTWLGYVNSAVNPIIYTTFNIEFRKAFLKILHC

σ1 receptor = σ1 receptor (Cavia porcellus, UniProt Q60492); assay: PDSP radioligand binding, σ1; conditions: read-out: % inhibition at 10 µM; single concentration 10 µM
Chain of σ1 receptor (Q60492 whole entry): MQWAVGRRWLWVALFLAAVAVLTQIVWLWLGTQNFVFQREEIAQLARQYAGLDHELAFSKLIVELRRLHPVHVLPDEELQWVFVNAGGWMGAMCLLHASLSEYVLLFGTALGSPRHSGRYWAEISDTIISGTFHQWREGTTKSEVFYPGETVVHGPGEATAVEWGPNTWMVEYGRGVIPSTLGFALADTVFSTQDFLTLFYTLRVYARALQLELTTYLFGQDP

[4] = molecular target: H3 histaminergic receptor (Homo sapiens, UniProt Q9Y5N1); assay: PDSP radioligand binding, H3; conditions: read-out: % inhibition at 10 µM; single concentration 10 µM
Chain of H3 histaminergic receptor (Q9Y5N1 whole entry): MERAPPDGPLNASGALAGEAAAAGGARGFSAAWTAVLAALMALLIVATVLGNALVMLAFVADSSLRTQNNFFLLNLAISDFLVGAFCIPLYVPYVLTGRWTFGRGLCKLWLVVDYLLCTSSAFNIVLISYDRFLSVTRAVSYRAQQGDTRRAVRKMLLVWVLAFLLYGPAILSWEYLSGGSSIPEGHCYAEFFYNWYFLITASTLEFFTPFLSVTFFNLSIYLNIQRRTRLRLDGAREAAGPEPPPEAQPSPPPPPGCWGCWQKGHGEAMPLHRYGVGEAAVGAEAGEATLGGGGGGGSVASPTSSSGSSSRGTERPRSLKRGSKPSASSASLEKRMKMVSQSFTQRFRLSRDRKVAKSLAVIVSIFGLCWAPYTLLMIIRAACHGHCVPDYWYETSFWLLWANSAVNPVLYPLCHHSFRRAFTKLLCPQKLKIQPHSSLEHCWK

κ opioid receptor = κ opioid receptor (Homo sapiens, UniProt P41145); assay: PDSP radioligand binding, κ opioid; conditions: read-out: % inhibition at 10 µM; single concentration 10 µM
Chain of κ opioid receptor (P41145 whole entry): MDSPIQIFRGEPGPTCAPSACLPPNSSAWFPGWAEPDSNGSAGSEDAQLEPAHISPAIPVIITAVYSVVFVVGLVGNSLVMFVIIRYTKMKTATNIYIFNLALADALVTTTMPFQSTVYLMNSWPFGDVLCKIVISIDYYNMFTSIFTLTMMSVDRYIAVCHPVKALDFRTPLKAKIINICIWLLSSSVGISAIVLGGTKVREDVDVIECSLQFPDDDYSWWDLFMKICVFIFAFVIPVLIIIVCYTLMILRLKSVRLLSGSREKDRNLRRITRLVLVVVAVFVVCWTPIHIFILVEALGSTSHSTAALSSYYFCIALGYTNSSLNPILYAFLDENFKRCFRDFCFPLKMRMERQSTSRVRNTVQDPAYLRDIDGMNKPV

α2C adrenergic receptor = molecular target: T1, α2C adrenergic receptor (Homo sapiens, UniProt P18825); assay: PDSP radioligand binding, α2C; conditions: for inhibition at 10 µM: read-out: % inhibition at 10 µM, single concentration 10 µM
T1 sequence (P18825 1-462): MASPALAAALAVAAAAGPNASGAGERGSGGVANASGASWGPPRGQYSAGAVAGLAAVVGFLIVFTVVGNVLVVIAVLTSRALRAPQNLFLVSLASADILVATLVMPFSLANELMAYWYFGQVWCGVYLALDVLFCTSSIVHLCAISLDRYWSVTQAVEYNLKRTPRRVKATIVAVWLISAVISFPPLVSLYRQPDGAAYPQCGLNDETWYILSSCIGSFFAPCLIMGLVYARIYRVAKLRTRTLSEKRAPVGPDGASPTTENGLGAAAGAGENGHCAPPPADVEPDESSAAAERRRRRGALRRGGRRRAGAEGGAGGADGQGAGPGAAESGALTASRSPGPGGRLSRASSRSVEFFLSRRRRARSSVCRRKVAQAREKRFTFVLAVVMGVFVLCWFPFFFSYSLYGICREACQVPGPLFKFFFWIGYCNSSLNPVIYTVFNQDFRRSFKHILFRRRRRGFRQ

[5] = molecular target: T2, M5 muscarinic acetylcholine receptor (Homo sapiens, UniProt P08912); assay: PDSP radioligand binding, M5; conditions: read-out: % inhibition at 10 µM; single concentration 10 µM
T2 sequence (P08912 1-532): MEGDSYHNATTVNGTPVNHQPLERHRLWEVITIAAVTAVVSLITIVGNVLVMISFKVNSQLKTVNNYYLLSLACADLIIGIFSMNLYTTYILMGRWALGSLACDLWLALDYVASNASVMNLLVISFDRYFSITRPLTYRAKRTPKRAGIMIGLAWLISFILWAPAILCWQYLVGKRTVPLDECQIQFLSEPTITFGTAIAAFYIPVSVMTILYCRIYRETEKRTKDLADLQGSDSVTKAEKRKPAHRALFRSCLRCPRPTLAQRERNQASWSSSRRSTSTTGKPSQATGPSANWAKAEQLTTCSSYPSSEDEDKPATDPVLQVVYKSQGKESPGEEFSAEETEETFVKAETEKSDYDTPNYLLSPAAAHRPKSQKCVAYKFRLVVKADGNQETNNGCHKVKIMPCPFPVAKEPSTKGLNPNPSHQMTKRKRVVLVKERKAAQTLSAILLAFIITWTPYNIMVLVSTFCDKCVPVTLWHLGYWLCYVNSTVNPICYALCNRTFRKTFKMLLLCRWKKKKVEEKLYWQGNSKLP

[6] = molecular target: 5HT5A serotonergic receptor (Homo sapiens, UniProt P47898); assay: PDSP radioligand binding, 5HT5A; conditions: read-out: % inhibition at 10 µM; single concentration 10 µM
Chain of 5HT5A serotonergic receptor (P47898 whole entry): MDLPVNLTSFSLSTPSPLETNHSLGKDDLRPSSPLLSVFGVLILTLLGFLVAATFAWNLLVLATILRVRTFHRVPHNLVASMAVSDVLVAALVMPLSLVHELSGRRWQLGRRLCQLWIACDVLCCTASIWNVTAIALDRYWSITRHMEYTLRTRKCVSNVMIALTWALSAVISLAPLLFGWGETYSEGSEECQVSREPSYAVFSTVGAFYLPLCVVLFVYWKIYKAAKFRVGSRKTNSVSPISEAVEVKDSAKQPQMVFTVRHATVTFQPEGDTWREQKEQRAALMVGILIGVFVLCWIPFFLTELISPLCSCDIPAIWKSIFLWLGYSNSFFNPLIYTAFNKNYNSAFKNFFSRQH

hERG potassium channel = hERG potassium channel (Homo sapiens, UniProt Q12809); assay: PDSP hERG functional assay; format: cell-based; conditions: for Ki: not binding
Chain of hERG potassium channel (Q12809 whole entry): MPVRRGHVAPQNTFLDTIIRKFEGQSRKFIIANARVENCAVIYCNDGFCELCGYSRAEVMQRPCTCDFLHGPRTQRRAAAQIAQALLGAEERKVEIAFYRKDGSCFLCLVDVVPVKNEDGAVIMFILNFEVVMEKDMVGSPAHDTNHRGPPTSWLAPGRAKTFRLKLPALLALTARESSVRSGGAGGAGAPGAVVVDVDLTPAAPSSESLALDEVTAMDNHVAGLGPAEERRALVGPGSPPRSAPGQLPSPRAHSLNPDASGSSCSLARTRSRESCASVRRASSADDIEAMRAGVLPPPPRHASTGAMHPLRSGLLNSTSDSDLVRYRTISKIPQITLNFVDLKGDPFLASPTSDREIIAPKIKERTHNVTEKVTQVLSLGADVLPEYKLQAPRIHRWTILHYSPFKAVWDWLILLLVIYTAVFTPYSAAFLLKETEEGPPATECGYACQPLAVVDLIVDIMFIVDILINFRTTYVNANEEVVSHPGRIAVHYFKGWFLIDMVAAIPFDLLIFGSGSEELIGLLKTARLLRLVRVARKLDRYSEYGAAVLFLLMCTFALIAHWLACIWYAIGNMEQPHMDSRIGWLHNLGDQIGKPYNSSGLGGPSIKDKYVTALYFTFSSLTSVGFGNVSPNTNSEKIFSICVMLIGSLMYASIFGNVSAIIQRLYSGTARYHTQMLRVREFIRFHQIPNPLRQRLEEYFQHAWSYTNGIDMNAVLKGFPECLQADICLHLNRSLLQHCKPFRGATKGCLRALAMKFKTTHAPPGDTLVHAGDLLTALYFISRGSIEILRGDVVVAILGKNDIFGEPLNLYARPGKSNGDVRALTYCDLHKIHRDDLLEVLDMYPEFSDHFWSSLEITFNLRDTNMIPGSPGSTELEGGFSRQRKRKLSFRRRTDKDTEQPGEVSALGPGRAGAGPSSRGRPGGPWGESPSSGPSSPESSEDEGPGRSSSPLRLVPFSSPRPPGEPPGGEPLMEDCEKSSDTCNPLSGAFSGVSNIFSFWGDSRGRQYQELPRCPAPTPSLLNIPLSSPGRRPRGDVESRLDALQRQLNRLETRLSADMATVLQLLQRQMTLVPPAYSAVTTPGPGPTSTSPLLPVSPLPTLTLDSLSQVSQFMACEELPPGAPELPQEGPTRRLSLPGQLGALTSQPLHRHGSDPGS

GABAA receptor = assay: PDSP radioligand binding, GABAA; conditions: single concentration 10 µM
[7] = molecular target: 5HT2B serotonergic receptor (Homo sapiens, UniProt P41595); assay: PDSP radioligand binding, 5HT2B; conditions: for inhibition at 10 µM: read-out: % inhibition at 10 µM
Chain of 5HT2B serotonergic receptor (P41595 whole entry): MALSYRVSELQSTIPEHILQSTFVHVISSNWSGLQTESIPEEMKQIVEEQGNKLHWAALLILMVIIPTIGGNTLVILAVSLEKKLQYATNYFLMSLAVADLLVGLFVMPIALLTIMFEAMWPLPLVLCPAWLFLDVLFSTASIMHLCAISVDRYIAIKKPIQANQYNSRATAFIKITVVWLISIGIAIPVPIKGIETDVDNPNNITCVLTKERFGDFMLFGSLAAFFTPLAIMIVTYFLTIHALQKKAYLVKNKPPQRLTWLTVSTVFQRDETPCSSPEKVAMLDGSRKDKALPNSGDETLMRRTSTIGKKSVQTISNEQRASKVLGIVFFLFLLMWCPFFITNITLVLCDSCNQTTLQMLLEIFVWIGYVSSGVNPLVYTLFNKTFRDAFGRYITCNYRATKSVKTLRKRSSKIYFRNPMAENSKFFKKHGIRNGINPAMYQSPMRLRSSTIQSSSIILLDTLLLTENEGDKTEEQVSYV

D3 dopaminergic receptor = D3 dopaminergic receptor (Homo sapiens, UniProt P35462); assay: PDSP radioligand binding, D3; conditions: read-out: % inhibition at 10 µM; single concentration 10 µM
Chain of D3 dopaminergic receptor (P35462 whole entry): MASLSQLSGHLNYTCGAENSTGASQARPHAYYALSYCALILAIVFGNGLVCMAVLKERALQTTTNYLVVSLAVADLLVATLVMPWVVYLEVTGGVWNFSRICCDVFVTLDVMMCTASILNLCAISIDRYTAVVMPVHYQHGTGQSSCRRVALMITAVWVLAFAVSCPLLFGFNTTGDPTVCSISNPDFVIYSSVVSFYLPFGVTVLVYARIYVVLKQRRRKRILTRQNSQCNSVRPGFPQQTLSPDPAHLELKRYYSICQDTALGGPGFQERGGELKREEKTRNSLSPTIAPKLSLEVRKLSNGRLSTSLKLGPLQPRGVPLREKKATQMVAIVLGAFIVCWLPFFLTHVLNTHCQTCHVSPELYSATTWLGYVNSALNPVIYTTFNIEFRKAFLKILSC

[8] = molecular target: T3, M2 muscarinic acetylcholine receptor (Homo sapiens, UniProt P08172); assay: PDSP radioligand binding, M2; conditions: read-out: % inhibition at 10 µM; single concentration 10 µM
T3 sequence (P08172 1-466): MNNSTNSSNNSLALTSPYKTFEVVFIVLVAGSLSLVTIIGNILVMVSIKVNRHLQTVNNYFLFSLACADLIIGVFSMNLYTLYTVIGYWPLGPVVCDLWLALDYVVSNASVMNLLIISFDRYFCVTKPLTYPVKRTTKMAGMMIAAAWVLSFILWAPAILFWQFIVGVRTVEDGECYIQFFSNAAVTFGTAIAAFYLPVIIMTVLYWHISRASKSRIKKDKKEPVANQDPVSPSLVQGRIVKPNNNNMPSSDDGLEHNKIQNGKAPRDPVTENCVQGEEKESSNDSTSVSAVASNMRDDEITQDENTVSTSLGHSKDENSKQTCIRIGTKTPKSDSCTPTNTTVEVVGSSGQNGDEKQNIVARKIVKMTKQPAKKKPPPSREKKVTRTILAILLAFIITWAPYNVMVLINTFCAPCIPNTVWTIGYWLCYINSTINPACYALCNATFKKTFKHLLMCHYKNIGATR

5HT3 ion channels = molecular target: T4, 5HT3 ion channels (Homo sapiens, UniProt P46098); assay: PDSP radioligand binding, 5HT3 ion channel; conditions: read-out: % inhibition at 10 µM; single concentration 10 µM
T4 sequence (P46098 24-478): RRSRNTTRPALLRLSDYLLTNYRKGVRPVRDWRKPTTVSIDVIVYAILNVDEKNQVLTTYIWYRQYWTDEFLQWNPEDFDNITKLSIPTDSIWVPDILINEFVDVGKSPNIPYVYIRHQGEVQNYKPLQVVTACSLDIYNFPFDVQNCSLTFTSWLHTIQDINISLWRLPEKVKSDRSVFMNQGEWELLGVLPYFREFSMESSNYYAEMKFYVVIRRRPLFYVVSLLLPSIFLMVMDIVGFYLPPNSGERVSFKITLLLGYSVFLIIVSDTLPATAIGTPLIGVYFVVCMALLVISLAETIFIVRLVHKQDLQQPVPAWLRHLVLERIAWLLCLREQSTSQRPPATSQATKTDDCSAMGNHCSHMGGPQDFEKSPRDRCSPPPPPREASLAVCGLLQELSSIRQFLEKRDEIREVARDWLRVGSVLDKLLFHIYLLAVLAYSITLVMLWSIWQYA

[9] = full concentration-response curves, n = 3-6 unless noted

Chain of 5HT1B serotonergic receptor (P28222 whole entry): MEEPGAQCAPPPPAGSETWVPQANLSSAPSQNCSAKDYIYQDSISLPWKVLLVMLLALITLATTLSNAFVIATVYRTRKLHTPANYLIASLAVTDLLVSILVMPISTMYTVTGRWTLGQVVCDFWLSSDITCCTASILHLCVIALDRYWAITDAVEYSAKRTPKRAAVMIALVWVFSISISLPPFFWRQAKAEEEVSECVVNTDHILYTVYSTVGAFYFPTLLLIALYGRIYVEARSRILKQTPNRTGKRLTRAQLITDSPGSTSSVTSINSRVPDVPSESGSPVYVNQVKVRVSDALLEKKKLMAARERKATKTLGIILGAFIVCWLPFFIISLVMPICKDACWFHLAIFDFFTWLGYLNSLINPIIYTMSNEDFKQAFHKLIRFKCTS

| SMILES | inhibition at 10 µM [1] [%] | inhibition at 10 µM [2] [%] | inhibition at 10 µM [3] [%] | inhibition at 10 µM (D2 dopaminergic receptor) [%] | inhibition at 10 µM (σ1 receptor) [%] | inhibition at 10 µM [4] [%] | inhibition at 10 µM (κ opioid receptor) [%] | inhibition at 10 µM (α2C adrenergic receptor) [%] | inhibition at 10 µM [5] [%] | inhibition at 10 µM [6] [%] | Ki (hERG potassium channel) [µM] | % inhibition at 10 µM (GABAA receptor) [%] | inhibition at 10 µM (D3 dopaminergic receptor) [%] | inhibition at 10 µM [8] [%] | inhibition at 10 µM (5HT3 ion channels) [%] | other results |
| --- | --- | --- | --- | --- | --- | --- | --- | --- | --- | --- | --- | --- | --- | --- | --- | --- |
| CNC(=O)[C@@]12C[C@@H]1[C@@H](n1cnc3c(NCc4cccc(Cl)c4)nc(C#Cc4ccc(F)cc4)nc31)[C@H](O)[C@@H]2O [Compound 2] | 0 | 36 | 92 | 0 | 2 | 0 | 20 | 48 | 9 | 25 | 39.5 | 0 | 4 | 0 | 26 | Ki ([3]; full curves, n = 2): 253 ± 57 nM; Ki (α2C adrenergic receptor; [9]): 3.64 ± 1.37 µM; inhibition at 10 µM (hERG potassium channel; human, single point 10 µM): 5.8 ± 11.9%; Ki [7, 9]: 2130 ± 270 nM; inhibition at 10 µM ([7]; single concentration 10 µM): 56% |
| CNC(=O)[C@@]12C[C@@H]1[C@@H](n1cnc3c(NC)nc(C#Cc4ccc(F)c(F)c4)nc31)[C@H](O)[C@@H]2O [Compound 5] | 15 | 15 | 25 | 18 | 10 | 0 | 21 | 13 | 4 | 5 | 7.93 | 0 | 4 | 0 | 2 | inhibition at 10 µM [7]: 4% |
